Reference: ChEMBL document CHEMBL1143527, “Design, synthesis, and activity of achiral analogs of 2-quinolones and indoles as non-thiol farnesyltransferase inhibitors” (Bioorg Med Chem Lett, 2005)

How the values were obtained:
[1] = molecular target: T1, Geranylgeranyl transferase type I (Bos taurus, UniProt P29702+Q5EAD5); test: Inhibition of bovine geranylgeranyl transferase; type: protein-complex assay
[2] = molecular target: T2, Protein farnesyltransferase (Bos taurus, UniProt P29702+P49355); test: Inhibition of bovine farnesyltransferase; type: protein-complex assay
[3] = molecular target: T3, Protein farnesyltransferase (Mus musculus) (UniProt Q61239+Q8K2I1); test: (§1) Percent inhibition of H-ras processing in transformed NIH3T3 cells at 100 nM; type: functional, cell-based
[4] = molecular target: T3, Protein farnesyltransferase (Mus musculus); test: as §1; type: functional, cell-based; remark: listed apart in the source
[5] = molecular target: T1, Geranylgeranyl transferase type I; test: Inhibition of bovine Geranylgeranyltransferase; type: protein-complex assay
[6] = molecular target: T2, Protein farnesyltransferase; test: Inhibition of bovine Farnesyltransferase; type: protein-complex assay
[7] = molecular target: T3, Protein farnesyltransferase (Mus musculus); test: Percent inhibition of H-ras processing in transformed NIH3T3 cells at 1000 nM; type: functional, cell-based
[8] = molecular target: Protein farnesyltransferase (Mus musculus, UniProt Q61239+Q8K2I1); test: Inhibition of H-ras processing in transformed NIH3T3 cells; type: functional, cell-based

Cn1c(=O)cc(-c2cccc(Cl)c2)c2cc(C(N)c3cncn3Cc3ccc(C#N)cc3)ccc21 (configuration not stated)
IC50 [1]: 22000 nM | IC50 [2]: 3.8 nM | inhibition [3]: 42%

Cn1c(=O)cc(-c2cccc(Cl)c2)c2cc(COCc3cncn3Cc3ccc(C#N)cc3)ccc21
IC50 [2]: 89 nM

Cn1c(=O)cc(-c2cccc(Cl)c2)c2cc(Cn3cncc3C(O)c3ccc(C#N)cc3)ccc21 (configuration not stated)
IC50 [1]: > 10000 nM | IC50 [2]: 44 nM

Cn1c(=O)cc(-c2cccc(Cl)c2)c2cc(Cn3cncc3COCc3ccc(C#N)cc3)ccc21
IC50 [2]: > 1000 nM

NC(=O)N1CCC(CC(=O)N2CCC([C@H]3c4ncc(Br)cc4CCc4cc(Cl)cc(Br)c43)CC2)CC1 [LONAFARNIB]
IC50 [1]: > 10000 nM | inhibition [3]: 100%

Cn1c(=O)cc(-c2cccc(Cl)c2)c2cc(Cn3cncc3Cc3ccc(C#N)cc3)ccc21
IC50 [1]: > 10000 nM | inhibition [4]: 57% | IC50 [5]: 17000 nM | IC50 [2]: 7.2 nM | inhibition [3]: 57% | IC50 [6]: 4.7 nM

N#Cc1cn(Cc2cncn2Cc2ccc3c(c2)OCO3)cc1-c1cccc2ccccc12
inhibition [7]: 68% | IC50 [1]: 520 nM | IC50 [2]: 6.1 nM

Cn1c(=O)cc(-c2cccc(Cl)c2)c2cc(C(O)c3cncn3Cc3ccc(C#N)cc3)ccc21 (configuration not stated)
IC50 [1]: 17000 nM | IC50 [2]: 4.7 nM | inhibition [3]: 32%

CC(=O)OC(c1ccc(C#N)cc1)c1cncn1Cc1ccc2c(c1)c(-c1cccc(Cl)c1)cc(=O)n2C (configuration not stated)
IC50 [1]: > 1000 nM | IC50 [2]: > 1000 nM

Cn1c(=O)cc(-c2cccc(Cl)c2)c2cc(Cn3cncc3Cn3ccc(C#N)c3)ccc21
IC50 [2]: 560 nM

N#Cc1ccc(Cn2cncc2Cn2ccc3cc(-c4cccc5ccccc45)ccc32)cc1
IC50 [1]: 270 nM | IC50 [2]: 0.93 nM | EC50 [8]: 5.7 nM

N#Cc1ccc(Cn2cncc2Cn2cc(C#N)c(-c3cccc4ccccc34)c2)cc1
IC50 [1]: 140 nM | IC50 [2]: 0.58 nM | EC50 [8]: 34 nM

Cn1c(=O)cc(-c2cccc(Cl)c2)c2cc(Cn3cncc3Cc3ccc(C#N)cc3)cnc21
IC50 [1]: 4000 nM | IC50 [2]: 10 nM | inhibition [3]: 39%

Cn1c(=O)cc(-c2cccc(Cl)c2)c2cc(Cn3cncc3COc3ccc(C#N)cc3)ccc21
IC50 [2]: > 1000 nM

Cn1cncc1C(OCc1ccc2c(c1)c(-c1cccc(Cl)c1)cc(=O)n2C)c1ccc(C#N)cc1 (configuration not stated)
IC50 [2]: 80 nM

Cn1c(=O)cc(-c2cccc(Cl)c2)c2cc(C(=O)c3cncn3Cc3ccc(C#N)cc3)ccc21
IC50 [1]: < 10000 nM | IC50 [2]: 29 nM | inhibition [3]: 30%

N#Cc1ccc(Cn2cncc2Cn2ccc3c(C#N)c(-c4cccc5ccccc45)ccc32)cc1
IC50 [1]: 110 nM | IC50 [2]: 0.15 nM | EC50 [8]: 2.1 nM

Cn1cncc1[C@@](N)(c1ccc(Cl)cc1)c1ccc2c(c1)c(-c1cccc(Cl)c1)cc(=O)n2C
inhibition [3]: 1.6%

Cn1c(=O)cc(-c2cccc(Cl)c2)c2cc(Cn3cncc3Cn3ccc(C(=O)N4CCOCC4)c3)ccc21
IC50 [2]: > 1000 nM

Cn1c(=O)cc(-c2cccc(Cl)c2)c2cc(C(NC=O)c3cncn3Cc3ccc(C#N)cc3)ccc21 (configuration not stated)
IC50 [1]: > 10000 nM | IC50 [2]: 2.1 nM | inhibition [3]: 28%

Cn1c(=O)cc(-c2cccc(Cl)c2)c2cc(Cn3cncc3Cn3ccc(=O)cc3)ccc21
IC50 [2]: > 1000 nM
